How the values were obtained:
[1] = system: triple-negative breast cancer cells; details: sequential but not simultaneous application of erlotinib and doxorubicin, time interval of about 24 hours; cited from earlier work
[2] = system: CD95-HeLa cells; experiment: Live-cell imaging with drug perfusion: CD95L-induced apoptosis under RL-optimized versus constant concentration trajectory; assay type: cell-based, human
Description: The experimental setup consisted of an automated live-cell microscope and infusion pumps for empty medium or CD95L stock solution placed inside a standard cell culture incubator. The microscope was combined with a surrounding, separable, autoclavable box for ensuring a sterile environment inside the incubator. Empty medium and the CD95L stock solution were guided through silicon tubes (inner diameter: 1 mm) connected to a t-shaped adapter piece. The t-adapter was connected with a microfluidic chip containing approximately 80,000 CD95-HeLa cells (human cervix carcinoma cell line overexpressing CD95 death receptors). Thereby, cells could be perfused by a mixture of CD95L stock solution and empty medium. For adjusting the CD95L concentration in each step of an experiment, a constant volume of 0.8 ml was infused. This volume comprised varying fractions of CD95L stock solution and empty medium. […] The total dose was set to 400 ng of CD95L according to a stock solution volume of 1.6 ml. Accordingly, cells could be perfused with CD95L at concentrations between zero and the stock concentration. During the experiment, images of the perfused cells were recorded every 3 minutes using the live-cell microscope. […]

COc1cccc2c1C(=O)c1c(O)c3c(c(O)c1C2=O)C[C@@](O)(C(=O)CO)C[C@@H]3O[C@H]1C[C@H](N)[C@H](O)[C@H](C)O1 [doxorubicin]
cell death [1]: maximizes cell death

C#Cc1cccc(Nc2ncnc3cc(OCCOC)c(OCCOC)cc23)c1 [erlotinib]
cell death [1]: maximizes cell death

B1: CD95L: CD95 cell death ligand; binds CD95 death receptors and induces apoptosis (protein, UniProt P48023 130-281, looked up)
Tumor necrosis factor ligand …: QIGHPSPPPEKKELRKVAHLTGKSNSRSMPLEWEDTYGIVLLSGVKYKKGGLVINETGLYFVYSKVYFRGQSCNNLPLSHKVYMRNSKYPQDLVMMEGKMMSYCTTGQMWARSSYLGAVFNLTSADHLYVNVSELSLVNFEESQTFFGLYKL
cell death kinetics (apoptotic cell fractions) ([2]; first RL-optimized CD95L concentration trajectory vs constant 50 ng/ml, same total dose 400 ng, 180 minutes, FIG. 13F): substantially accelerated cell death kinetics
cell death (apoptotic cell fractions) ([2]; optimized CD95L trajectory from second RL iteration vs constant concentration or first-iteration trajectory, total dose 400 ng, FIG. 14G): accelerated cell death
